Publication PMC7076374, “Improved Pharmacokinetics and Tissue Uptake of Complexed Daidzein in Rats” (Pharmaceutics, 2020)
Read-outs that look alike come from different tables or passages of the source.

What was measured:
in vivo [1] = settings: rat, iv, 20 mg/kg
Experimental: (§1) DAI in the form of a suspension in saline was administered to the rats at the doses of 20 mg/kg (i.v.) and 50 mg/kg (i.p.).
Blood samples were collected via a retro-orbital puncture at 15 min, 30 min, 3 h, 5 h, and 24 h after i.v. administration. The first two blood samples (at 15 min and 30 min) were withdrawn while the rats were still under general anesthesia. For the later time-points, the blood was taken under a short isoflurane anesthesia. One mL of saline was administered i.p. after every blood withdrawal to compensate the loss of water. The rats were sacrificed by decapitation 24 h after compound administration. All blood samples were centrifuged to obtain serum. The serum samples were frozen in a freezer at −80 °C.
(§2) PK parameters were calculated using a non-compartmental approach from the average concentration values, using Phoenix WinNonlin software (Certara, St. Louis, MO, USA). The first-order elimination rate constant (λz) was calculated by linear regression of log concentration versus time. The area under the mean serum and tissue concentration versus time curve (AUC0⟶t) was calculated from zero to the last concentration point using the linear trapezoidal rule as (1) AUC0→t=∑i=1nCi+Ci+1/2·(ti+1−ti) where Ci is the concentration of the compound.
(§3) The area under the first-moment curve (AUMC0⟶t) was estimated by calculation of the total area under the first-moment curve:(2) AUMC0→t=∑i=1n((ti·Ci+ti+1·Ci+1)/2)·(ti+1−ti) where ti is the […].
(§4) Mean residence time (MRT) was calculated as (3) MRT=AUMC0→t/AUC0→t
Systemic clearance (Cl) was calculated as (4) Cl=Div/AUC0→t
The volume of distribution at steady state (Vss) was calculated as (5) Vss=Div⋅AUMC0→t/(AUC0→t)^2

in vivo [2] = settings: for tmax: DAI in suspension, i.p. 50 mg/kg, rat serum
Experimental: as §1
The second study was conducted in 48 animals to assess DAI tissue penetration and bioavailability. […] Animals were deeply anaesthetized by i.p. injections of 50 mg/kg ketamine plus 8 mg/kg xylazine before sacrifice. First, the blood was collected by retro-orbital puncture, and the blood samples were centrifuged to obtain serum. The serum samples were frozen in a freezer at −80 °C. A whole-body saline perfusion was then performed after wide laparotomy when the heart was exposed, and the tip of the needle was inserted into the left ventricle and the right atrium was cut to allow efflux of blood. This procedure allowed the blood from all tissues to be washed out to determine the amount of DAI in the tissue, excluding its content in the blood. Following the animals’ euthanasia, the following samples were collected: whole brain, whole eyes, liver lobe, abdominal fat, one kidney, whole spleen, one testis, and selected parts of heart and lungs. The brain was cut between hemispheres in halves; one half was weighed, inserted into 2 mL of SDS-tris lysing buffer (100 mM tris buffer, 10% glycerol, 1% sodium dodecyl sulfate), and homogenized with a tissue homogenizer. The other half of the brain, the homogenates, and all other tissue samples collected were immediately shock-frozen in liquid nitrogen and stored at −80 °C for future analysis.
as §2, §3, §4

[3] = healthy premenopausal women, cited from earlier work
[4] = male, rat, in vivo, ip, 50 mg/kg

O=c1c(-c2ccc(O)cc2)coc2cc(O)ccc12 [DAI in Suspension, 7-hydroxy-3-(4-hydroxyphenyl)-4H-chromen-4-one]
AUC (in vivo [1]): 1580 ng·h/mL | C0 (in vivo [1]): 6160 ng/mL | MRT (in vivo [1]): 4.29 h | clearance (in vivo [1]): 211 mL/min/kg | half-life (in vivo [1]): 3.83 h | tmax (in vivo [2]; 50 mg/kg): 0.75 h | bioavailability (in vivo [2]; male, rat, in vivo): 28.2% | AUC (in vivo [2]; [4]): 1110 ng·h/mL | CL/F (in vivo [2]; [4]): 775 mL/min/kg | MRT (in vivo [2]; [4]): 3.63 h | Vd/F (in vivo [2]; [4]): 220 L/kg | half-life (in vivo [2]; [4]): 3.41 h | Cmax (in vivo [2]; male, rat, in vivo, ip, 50 mg/kg, Cmax): 173 ng/mL | tmax (in vivo [2]; male, rat, in vivo, ip, 50 mg/kg, tmax): ≤ 0.75 h | Bioavailability of DAI ([3]; first value of '5.15% vs. 8.7%', at higher intakes): 5.15% | Bioavailability of DAI ([3]; second (comparison) value of '5.15% vs. 8.7%'): 8.7%
